Data published in patent publication US11198673B2, “Therapeutic compounds and compositions” (eXIthera Pharmaceuticals, Inc., priority 2014, dated 2021).
In brackets after ≈: the same amount, converted by molar mass.

How the values were obtained:
[1] = test system: Trypsin; test: Dose response assay for protease inhibitors: trypsin (FXIa fold selectivity); format: biochemical; settings: fold selectivity for FXIa over trypsin
Procedure: (§1) • Assay buffer: 20 mM Hepes, pH 7.4; 150 mM NaCl; 0.02% Tween 20 • Compounds: 10 mM stocks in DMSO • Substrate: 20 mM Glp-Pro-Arg-AMC, 25 mg/2.3 mL H2O (store at +4° C.) [Factor XIa, thrombin, and trypsin] • 20 mM Pro-Phe-Arg-AMC (Bachem I-1295), 25 mg/2.2 mL H2O (store at +4° C.) [Factor Xa] • Enzyme: Factor XIa; 0.25 μM in 50% glycerol (20 μg/mL) • Trypsin; 0.2 μM in 50% glycerol (4.8 μg/mL) • Thrombin; 0.2 μM in 50% glycerol (7.34 μg/mL) • Factor Xa; 0.2 μM in 50% glycerol (9.2 μg/mL) • These stocks are aliquoted ([…]) and stored at −20° C. Methods: • 1. Dilute the substrate to 100 μM in assay buffer (30 μL/6 mL). The enzyme is diluted to 0.5 nM just prior to use (12 μL/6 mL for Factor XIa; 15 μL/6 mL for all of the rest.) • 2. Pipette 50 μL of substrate into each well of the 96 well (12×8) microtiter plate. (Column 1 is used as the 100% activity control and receives no compound, and Column 12 is the blank and receives no enzyme.) Add an additional 46 μL to column 2. • 3. Pipette 4 μL of each compound into the appropriate well in column 2 of the plate (unknowns assayed in triplicate, standard assayed in duplicate). The final compound concentration will be 1/50th of the stock. • 4. Serially two-fold dilute the compound by mixing the sample in column 2, removing 50 μL to the next well (column 3), mix and remove to column 4, etc. until column 11. After mixing column 11, remove 50 μL and discard. • 5. Pipette 50 μL of buffer into column 12. Initiate the reaction by adding 50 μL of enzyme solution to each well of columns 1-11 as rapidly as possible. • 6. Read the plate in a spectrophotometer (SpectraMax) at 30° C., wherein each well is measured every 60 s for 30 min. For Factor Xa assays, each well is measured every 1 min for a total of 60 min. • 7. For Factor XIa assays, the compounds are assayed, in duplicate, at 3 different starting concentrations, 20, 2, and 0.2 μM; 1:10, 1:100, and 1:1000 dil'n of 10 mM stock. All data sets are combined for graphing and data fitting. • 8. Data can be used both for estimation of IC50 and for estimation of Kon.

[2] = target: T1, Factor Xa (Homo sapiens, UniProt P00742); test: Dose response assay for protease inhibitors: Factor Xa (FXIa fold selectivity); format: biochemical; settings: fold selectivity for FXIa over Factor Xa
T1 construct: Factor Xa; 0.2 μM in 50% glycerol (9.2 μg/mL)
T1 sequence (P00742 235-488 limits assumed): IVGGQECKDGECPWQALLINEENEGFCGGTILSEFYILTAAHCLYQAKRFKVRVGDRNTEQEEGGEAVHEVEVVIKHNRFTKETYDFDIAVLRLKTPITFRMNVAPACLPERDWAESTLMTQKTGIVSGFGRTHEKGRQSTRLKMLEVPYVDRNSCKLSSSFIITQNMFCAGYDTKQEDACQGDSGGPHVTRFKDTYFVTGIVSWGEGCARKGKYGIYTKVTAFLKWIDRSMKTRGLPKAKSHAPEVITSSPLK
T1 sequence (P00742 41-179 partner limits assumed): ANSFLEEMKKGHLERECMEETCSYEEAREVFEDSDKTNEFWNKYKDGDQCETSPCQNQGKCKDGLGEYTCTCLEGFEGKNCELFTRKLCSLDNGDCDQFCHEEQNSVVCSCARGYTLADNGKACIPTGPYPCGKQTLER
Procedure: as §1

[3] = β-Lactam stability in rat plasma; format: in vitro ADME; settings: normal rat plasma, room temperature; read-out: Rat Plasma Stability (T1/2; min)
Procedure, shortened: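 Compounds incubated in normal rat plasma at room temperature, sampled into acetonitrile from 2 to 480 min. Supernatants analysed by HPLC-MS on C18, extracted ion chromatograms of parent and parent+18 (H2O adduct) integrated; T½ = ln(2)/k from single-phase exponential decay fit.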

[4] = target: T2, human Factor XIa (Homo sapiens, UniProt P03951); test: Factor XIa enzyme inhibition assay (IC50, purified enzyme); format: biochemical; settings: purified enzyme 0.25 nM, substrate 50 μM; read-out: Potency hFXIa IC50
T2 construct: Enzyme: Factor XIa; 0.25 μM in 50% glycerol (20 μg/mL)
T2 sequence (P03951 388-625 limits assumed): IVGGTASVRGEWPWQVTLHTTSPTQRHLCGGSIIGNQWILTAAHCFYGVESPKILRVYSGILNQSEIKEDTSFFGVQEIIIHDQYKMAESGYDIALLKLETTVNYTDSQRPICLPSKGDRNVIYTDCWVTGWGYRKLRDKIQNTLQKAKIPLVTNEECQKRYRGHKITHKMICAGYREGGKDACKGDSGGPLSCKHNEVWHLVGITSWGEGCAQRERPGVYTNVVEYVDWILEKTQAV
T2 sequence (P03951 19-387 partner limits assumed): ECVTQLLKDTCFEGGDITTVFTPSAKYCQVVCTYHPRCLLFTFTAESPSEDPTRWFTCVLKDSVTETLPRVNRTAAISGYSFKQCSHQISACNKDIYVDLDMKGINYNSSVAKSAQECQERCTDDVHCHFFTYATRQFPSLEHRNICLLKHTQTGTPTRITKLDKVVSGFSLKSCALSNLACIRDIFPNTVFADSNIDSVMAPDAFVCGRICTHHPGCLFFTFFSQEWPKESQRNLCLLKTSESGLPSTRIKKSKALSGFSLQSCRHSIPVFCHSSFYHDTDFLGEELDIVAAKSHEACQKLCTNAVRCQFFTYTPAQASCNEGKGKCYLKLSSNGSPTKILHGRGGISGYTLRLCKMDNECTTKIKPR
Procedure, shortened: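 Fluorogenic Glp-Pro-Arg-AMC cleavage, 50 μM substrate, 0.25 nM enzyme, in 20 mM Hepes pH 7.4, 150 mM NaCl, 0.02% Tween 20. Serial two-fold compound dilutions from starting concentrations of 20, 2 and 0.2 μM. Read every minute for 30 min at 30° C; IC50 from a four-parameter fit of dose-response.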

[5] = in vitro; settings: both, human, microsomes, pH 7.4
Procedure: The following procedure was used to determine the stability of a test compound in pooled liver microsomes from human (mixed gender) in 96-well plate format. The test compound was quantified at five time points by HPLC-MS/MS analysis. The final microsomal protein concentration in the assay was 0.1 mg/mL. […] The test compound was pre-incubated with human liver microsomes in phosphate buffer (pH 7.4) for 5 min in a 37° C. shaking waterbath. The reaction was initiated by adding NADPH-generating system and incubated for 0, 15, 30, 45, and 60 minutes. The reaction was stopped by transferring the incubation mixture to acetonitrile/methanol. Samples were then mixed and centrifuged and the supernatants used for HPLC-MS/MS analysis. Peak areas corresponding to the test compound were recorded. The compound remaining was calculated by comparing the peak area at each time point to time zero.

[6] = in vitro; settings: for fraction unbound at 4 h, 10 µM: both, human, plasma, pH 7.4
Procedure: The following procedure was used to determine the plasma protein binding of a test compound in pooled plasma from human (mixed gender) via equilibrium dialysis in a 96-well plate format. The dialysate compartment is loaded with phosphate-buffered saline (pH 7.4) and the sample side is loaded with plasma spiked with the test compound at a concentration of 10 μM. After loading, samples are covered and incubated for 4 hours at 37° C. After incubation, each compartment is sampled, diluted with acetonitrile/buffer and centrifuged. The supernatants are analyzed by HPLC-MS/MS. The amount measured in the plasma compartment includes both free and bound drug, while that on the buffer side represents free drug only; the differences are used to calculate the percentage plasma protein bound.

[7] = physchem; format: physicochemical; settings: pH 7.4, aqueous buffer, kinetic from dmso stock
Procedure: The test compound was prepared at 200 μM in PBS from a 10 mM DMSO stock solution. The final DMSO concentration was 2%. The PBS buffer samples were mixed thoroughly followed by incubation at room temperature for 24 h. At the end of the incubation, the PBS buffer samples were centrifuged and supernatants analyzed by HPLC.

[8] = target: T3, Thrombin (Homo sapiens, UniProt P00734); test: Dose response assay for protease inhibitors: thrombin (FXIa fold selectivity); format: biochemical; settings: fold selectivity for FXIa over thrombin
T3 construct: Thrombin; 0.2 μM in 50% glycerol (7.34 μg/mL)
Procedure: as §1

SMILES | FXIa Fold Selectivity FXa [2] | half-life [3] | IC50 [4] | half-life at 0.1 µM [5] | fraction unbound at 4 h, 10 µM [6] | solubility at 4 h [7] | FXIa Fold Selectivity Thrombin [8] | binding of reference compounds to human plasma proteins [6] | solubility at 24 h [7] | FXIa Fold Selectivity Trypsin [1]
C[C@@H](NC(=O)N1C(=O)[C@H](Cc2ccnc(N)c2)[C@H]1C(=O)O)C1CCCCC1 [Example 38] | I (“I” indicates >1000) | > 1.67 h | < 0.01 µM | > 1 h | > 0.1 | > 100 µM | I (“I” indicates >1000) |  |  | H (“H” indicates 500-1000)
Nc1cc(C[C@H]2C(=O)N(C(=O)N[C@@H](C3CCCCC3)C(F)(F)F)[C@@H]2C(=O)O)ccn1 [Example 88] | I (“I” indicates >1000) | > 1.67 h | < 0.01 µM | > 1 h | > 0.1 | > 100 µM | I (“I” indicates >1000) |  |  | G (“G” indicates 1-500)
C[C@@H](NC(=O)N1C(=O)[C@H](Cc2ccnc(N)c2)[C@H]1C(=O)O)c1ccc2c(c1)OC(F)(F)O2 [Example 91] | I (“I” indicates >1000) | > 1.67 h | < 0.01 µM | > 1 h | 0.02 to 0.1 | > 100 µM | I (“I” indicates >1000) |  |  | G (“G” indicates 1-500)
C[C@@H](NC(=O)N1C(=O)C(Cc2ccnc(Cl)c2)[C@H]1C(=O)O)c1ccc2c(c1)OC(F)(F)O2 (some centres unmarked) [Example 128] |  | > 1.67 h | > 1 µM | > 1 h | < 0.02 | > 100 µM |  |  |  | 
O=C(O)[C@@H]1[C@@H](Cc2ccncc2)C(=O)N1C(=O)N[C@@H](C1CCCCC1)C(F)(F)F [Example 135] | G (“G” indicates 1-500) | > 1.67 h | 0.1 to 1 µM |  |  |  | G (“G” indicates 1-500) |  |  | G (“G” indicates 1-500)
CCOC(=O)[C@@H]1[C@@H](Cc2ccnc(NC(=O)OCOC(=O)C(C)C)c2)C(=O)N1C(=O)N[C@H](C)C1CCCCC1 [Example 137] | H (“H” indicates 500-1000) | < 1.67 h | 0.01 to 0.1 µM |  |  |  | I (“I” indicates >1000) |  |  | I (“I” indicates >1000)
CCOC(=O)[C@@H]1[C@@H](Cc2ccnc(NC(=O)OCOC(=O)C(C)C)c2)C(=O)N1C(=O)N[C@@H](C1CCCCC1)C(F)(F)F [Example 140] | I (“I” indicates >1000) | < 1.67 h | 0.01 to 0.1 µM |  |  |  | I (“I” indicates >1000) |  |  | G (“G” indicates 1-500)
O=C(O)[C@@H]1[C@@H](CCc2cccc(Cl)c2F)C(=O)N1C(=O)N[C@@H](C1CCCCC1)C(F)(F)F [Example 156] | H (“H” indicates 500-1000) | > 1.67 h | 0.1 to 1 µM |  |  |  | I (“I” indicates >1000) |  |  | I (“I” indicates >1000)
CCOC(=O)[C@@H]1C(CCc2cccc(Cl)c2)C(=O)N1C(=O)N[C@@H](C1CCCCC1)C(F)(F)F (some centres unmarked) [Example 158] |  |  | 0.1 to 1 µM | 0.5 to 1 h | > 0.1 | < 1 µM |  |  |  | 
CCOC(=O)[C@@H]1[C@@H](Cc2ccnc(N)c2)C(=O)N1C(=O)N[C@@H](C)c1ccc2c(c1)OC(F)(F)O2 [Example 166] | H (“H” indicates 500-1000) | < 1.67 h | < 0.01 µM |  |  |  | I (“I” indicates >1000) |  |  | G (“G” indicates 1-500)

Second part, led by results:

FXIa Fold Selectivity FXa [2] | half-life [3] | IC50 [4] | half-life at 0.1 µM [5] | fraction unbound at 4 h, 10 µM [6] | solubility at 4 h [7] | FXIa Fold Selectivity Thrombin [8] | binding of reference compounds to human plasma proteins [6] | solubility at 24 h [7] | SMILES | FXIa Fold Selectivity Trypsin [1]
H (“H” indicates 500-1000) | < 1.67 h | 0.01 to 0.1 µM |  |  | 1 to 10 µM (≈ 0.621 to 6.21 µg/mL) | I (“I” indicates >1000) |  |  | CCOC(=O)[C@@H]1[C@@H](Cc2ccnc(NC(=O)OCOC(=O)C(C)C)c2)C(=O)N1C(=O)N[C@H](C)c1ccc2c(c1)OC(F)(F)O2 [Example 92] | I (“I” indicates >1000)
G (“G” indicates 1-500) |  | 0.1 to 1 µM | < 0.5 h | < 0.02 | > 100 µM | G (“G” indicates 1-500) |  |  | CC(C)C(=O)OCOC(=O)Nc1cc(C[C@H]2C(=O)N(C(=O)N[C@H](C)c3ccc4c(c3)OC(F)(F)O4)[C@@H]2C(=O)O)ccn1 [Example 100] | G (“G” indicates 1-500)
G (“G” indicates 1-500) | < 1.67 h | 0.1 to 1 µM |  |  |  | G (“G” indicates 1-500) |  |  | CCOC(=O)[C@@H]1[C@@H](Cc2ccnc(NC(=O)[C@H](C)N)c2)C(=O)N1C(=O)N[C@H](C)c1ccc2c(c1)OC(F)(F)O2 [Example 148] | G (“G” indicates 1-500)
I (“I” indicates >1000) | > 1.67 h | < 0.01 µM |  |  |  | I (“I” indicates >1000) |  |  | C[C@@H](NC(=O)N1C(=O)[C@H](Cc2ccnc(N)c2)[C@H]1C(=O)O)c1ccc(OC(F)(F)F)cc1 [Example 168] | I (“I” indicates >1000)
G (“G” indicates 1-500) | < 1.67 h | 0.01 to 0.1 µM |  |  |  | G (“G” indicates 1-500) |  |  | CCOC(=O)[C@@H]1[C@@H](Cc2ccncc2)C(=O)N1C(=O)N[C@H](C)c1ccc2c(c1)OC(F)(F)O2 [Example 170] | G (“G” indicates 1-500)
 |  |  |  |  |  |  | low |  | CCCC(=O)Nc1ccc(OCC(O)CNC(C)C)c(C(C)=O)c1 (centres unmarked) [acebutolol, reference compound] | 
 |  |  |  |  |  |  |  | 200 µM (≈ 53.5 µg/mL) | COCCc1ccc(OCC(O)CNC(C)C)cc1 (centres unmarked) [metoprolol, reference compound] | 
 |  |  |  |  |  |  | medium |  | C=C[C@H]1C[N@@]2CC[C@H]1C[C@@H]2[C@@H](O)c1ccnc2ccc(OC)cc12 [quinidine, reference compound] | 
